In publication PMC4658182, “The Synthetic Antimicrobial Peptide 19-2.5 Interacts with Heparanase and Heparan Sulfate in Murine and Human Sepsis” (PLoS ONE, 2015):
One block for each molecule: values may come before it.

Legend:
[1] = Isothermal titration calorimetry, binding to HS-fragments; details: vs peptide 19–2.5 (Table 2)
Description: Isothermal titration calorimetry (ITC) experiments were performed as previously described. Briefly, the binding of peptide 19–2.5 to heparanase or HS-fragments was recorded by measuring the enthalpy change of the reaction at 37°C. For this, a total of 100 μg/ml heparanase (R&D Systems Europe Ltd., Abingdon, United Kingdom) and 200 μg/ml HS-fragments (H7640 Sigma-Aldrich, St. Louis, MO, USA) were dispersed into the calorimetric cell, and 2 mM peptide 19–2.5 was titrated to this dispersion stepwise in 3 μl portions. After exploring experiments, the concentration of HS was 100 μg/ml titrated with 1.5 μl of peptide 19–2.5 (2 mM) 20 times at 37°C.
Fig 5 Isothermal titration calorimetry (ITC). For the ITC experiments, 2 mM peptide 19–2.5 was titrated to this dispersion stepwise in 3 μl portions into (A) 200 μg/ml heparan sulfate-fragments (HS) and (B) 100 μg/ml heparanase (Hep). In each titration, the resulting heat signals P were recorded (peak downwards are exothermic, peaks upwards endothermic reactions) against time (min) and presented in the top parts of Fig 5A and 5B. The integrated enthalpy changes ΔH versus [peptide]:[HS-fragments] (A) and [peptide]:[heparanase] (B) concentration ratios of the single titrations are illustrated in the bottom parts of Fig 5A and 5B.

[2] = cited from earlier work
Excerpt: Sepsis is a common and life-threatening disease especially in medical and surgical intensive care patients with mortality rates up to 60% [1]. It is characterized by a systemic inflammatory response to infection triggered by both pathogen-associated molecular patterns (PAMPs) as well as endogenous danger-associated molecular patterns (DAMPs). Here, heparan sulfate and the enzyme heparanase play key roles. Heparan sulfates are linear polysaccharides composed of repeating disaccharide subunits, which are D-glucosamine and D-glucuronic acid in their unmodified form. They are attached ...

heparanase = heparanase (UniProt Q9Y251); test: ITC; 2 mM peptide 19-2.5 titrated stepwise in 3 ul portions into 100 ug/ml heparanase in the calorimetric cell, 37 °C
Chain of heparanase (Q9Y251 36-543): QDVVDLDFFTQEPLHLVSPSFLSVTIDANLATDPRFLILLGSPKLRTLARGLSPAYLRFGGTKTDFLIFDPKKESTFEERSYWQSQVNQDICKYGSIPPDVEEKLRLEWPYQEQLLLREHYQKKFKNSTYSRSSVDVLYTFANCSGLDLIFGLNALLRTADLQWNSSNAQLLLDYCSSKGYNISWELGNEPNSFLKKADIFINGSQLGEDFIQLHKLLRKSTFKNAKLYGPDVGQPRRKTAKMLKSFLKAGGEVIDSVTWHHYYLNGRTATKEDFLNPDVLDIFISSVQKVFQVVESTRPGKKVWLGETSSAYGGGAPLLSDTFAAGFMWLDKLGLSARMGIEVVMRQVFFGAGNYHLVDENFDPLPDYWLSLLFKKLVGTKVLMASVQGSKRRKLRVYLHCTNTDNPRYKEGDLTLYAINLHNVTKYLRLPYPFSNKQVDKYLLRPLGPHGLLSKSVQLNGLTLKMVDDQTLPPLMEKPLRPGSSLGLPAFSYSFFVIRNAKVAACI

Molecule: GCKKYRRFRWKFKGK [peptide 19–2.5gek, peptide variant with the hydrophobic C-terminal of the peptide, FWFWG, removed]
- binding constant to HS-fragments on removal of C-terminal FWFWG [1]: dramatically decreases

Molecule: LL-37: naturally occurring antimicrobial cathelicidin peptide LL-37
- neutralization of pro-inflammatory action of PAMPs and DAMPs [2]: neutralizes the pro-inflammatory action of PAMPs and DAMPs
- toxicity ([2]; limits therapeutic use): intrinsic toxicity

- dH (at the beginning of the titration) (heparanase): -5.98 kcal/mol
Molecule: GCKKYRRFRWKFKGKFWFWG [synthetic antimicrobial peptide 19-2.5]
